“Also recorded” adds a separate entry of the source.
How the values were obtained:
[1] = tested on: Shh gene expression; assay: Shh gene expression by qPCR in drug-treated A549 cells; assay type: cell-based, human
Description: RNA from unsorted cells was extracted with Qiagen Rneasy® Minikit (Quiagen), according to manufacturer instructions. RNA from sorted cells was extracted with Arcturus PicoPure RNA Isolation Kit (Life technologies). cDNA was then synthesized with iScript cDNA Synthesis Kit (Bio-Rad), according to manufacturer instructions. Commercial primers for Shh gene were obtained from Origen. Quantitative PCR was performed on Applied Biosystems' 7900HT Fast Real-Time PCR System, with triplicate for each gene analysis. Gene expression analysis was calculated with deltaCT method, with normalization with endogenous control (18s gene) (normalized gene expression level=2^−deltaCT(test gene)−deltaCT(18s)). For ddPCR, droplets creation, PCR and results analysis were performed according to manufacturer instructions (BioRad, QX100 ddPCR System, Quantasoft software). Results of ddPCR were expressed as FAM concentrations (copies/μl). RNA from unsorted cells was extracted with Qiagen's RNeasy Mini kit (Qiagen) according to the manufacturer's instructions. […] Quantitative RT-PCR (qRT-PCR) was performed on an Applied Biosystems 7900HT Fast Real-Time PCR System, in triplicate for each sample. Gene expression analysis was calculated with the delta-deltaCT method normalized to an endogenous control (18S gene). […] Results of ddPCR were expressed as FAM concentrations (copies/0).

[2] = tested on: most chemo-resistant NSCLC cell lines; details: previous study; cited from earlier work
[3] = tested on: Shh+ cells in A549 xenografts; assay: Shh rate in A549 xenografts of drug-treated nude mice; assay type: in vivo
Description: For xenograft formation, female nude mice, 5 to 10 weeks old, were injected subcutaneously (SC) with 10 million A549 cells in the dorsal area in a volume of […]. For SC inoculation of sorted cells, 1,500 cells of A549 Shh+ or Shh− cells were injected in a volume of […]. For intra-veinous injection of sorted cells, 1,000 cells of A549 Shh+ or Shh− cells were injected in the tail vein. For the in vivo treatment assay, after xenograft formation, animals were injected intravenously with cisplatin (10 mg/kg weekly), docetaxel (10 mg/kg twice a week) or vehicle, and intraperitoneally with GDC0449 (20 mg/kg daily) or vehicle. Each group consisted in 4-5 mice. Tumor size was determined twice a week, and tumor volumes were calculated using width (x) and length (y) (x^2y/2, where x<y). Tumors were collected after mice euthanasia, and cell dissociation was performed as for fresh human samples (cf supra). Flow cytometry and FACS were done as described supra. All animals were cared in accord with University of California San Francisco (UCSF) guidelines.
For xenograft formation, 5-10 week-old female nude mice, were injected subcutaneously (SC) with 10 million A549 cells in the dorsal area in a volume of 100 μl. […] Tumor size was determined twice a week, and tumor volumes were calculated using width (x) and length (y) (x^2y/2, where x<y). […]

[4] = tested on: Shh+ cells (A549); assay: Shh rate by flow cytometry in drug-treated A549 cells; assay type: cell-based, human
Description: FACS (1:40). The secondary antibody was a donkey anti-mouse FITC-linked antibody (ab97029, 1:100, Abcam). For cell analysis after treatment assays (chemotherapy or GDC0449), a dead cell marker (SytoxRed, Invitrogen) was also used. For human fresh samples, an anti-CD45 APC-linked antibody (ab28106, 1:100, Abcam), and a dead cells marker (SytoxRed, Invitrogen) were added. For staining of stable transfected cell lines, mouse anti-HA antibody (Abcam, 1:100) and rabbit anti-FLAG antibody (Cell Signaling; 1:400) were used. Corresponding secondary antibodies were donkey anti-mouse AlexaFluor647 (Invitrogen, 1:1000) and donkey anti-rabbit AlexFluor594 (Invitrogen, 1:1000) antibodies. Flow cytometry analyses were performed on AccuriC6 flow cytometer (BD Biosciences), and FACS on FACSAria II (BD Biosciences). Flow analyses were based at least on 200,000 cells, and each test was made at least in triplicate. For all experiments, a negative control with cells processed without primary antibody was used. Sorted cells (Shh+ and Shh− cells) were collected on fresh media, and seeded on culture plates or freezed at −80° C. according to further analyses. Flow cytometry analysis was performed without membrane permeabilization prior to labeling the cells, unless otherwise indicated (e.g., FIG. 1D). Cisplatin was purchased from Sigma, and freshly reconstituted in PBS (2 g/1). Docetaxel was purchased from Tocris Bioscience, reconstituted in DMSO (5 g/1 stock dilution at −20° C.; further dilution in fresh culture medium) for in vitro assays, or reconstituted in ethanol/polysorbate 80 (1:1; 5 g/1 stock dilution at −20° C.; further dilution in PBS) for in vivo assays. GDC0449 was purchased from Selleck Chemicals, and reconstituted in DMSO (30 mM stock dilution). Shh human recombinant protein was obtained from EBioscience, and used at 1200 ng/ml. The mouse Shh-C-terminal antibody (mentioned above) was used for flow cytometry and FACS (1:40). The secondary antibody was a donkey anti-mouse FITC-linked antibody (ab97029, 1:100, Abcam). For cell analysis after treatment assays (chemotherapy or GDC0449), a marker for dead cells (SytoxRed®, Invitrogen) was also used. For fresh human samples, an anti-CD45 APC-linked antibody (ab28106, 1:100, Abcam) was added, and a marker for dead cells (SytoxRed®, Invitrogen). For staining of stable transfected cell lines, a mouse anti-HA antibody (Abcam, 1:100) and a rabbit anti-FLAG antibody (Cell Signaling; 1:400) were used. Corresponding secondary antibodies were donkey anti-mouse AlexaFluor647 (Invitrogen, 1:1 000) and donkey anti-rabbit AlexFluor594 (Invitrogen, 1:1 000). Flow cytometry analyses were performed on an AccuriC6 flow cytometer (BD Biosciences), and FACS on a FACSAria II (BD Biosciences). […]

[5] = tested on: A549 cells; assay: Proliferation (MTS) and migration/wound healing assay on A549 cells; assay type: cell-based, human; details: GDC0449
Description: Proliferation assay was performed by MTS assay (CellTiter 96, Promega), according to manufacturer instructions. […] Migration assay was performed by wound healing assay. Monolayers of cells were: cultured, scratched, treated with media containing proteins and/or drugs at different concentrations: Shh protein, DMSO, and GDC0449, and recorded 0 and 24, 72 and 96 hours after treatment. MTS proliferation assays were performed (CellTiterGlo 96, Promega) according to the manufacturer's instructions. […] Wound healing assays were performed to study cell migration. Monolayers of cells were cultured, scratched, treated with media containing proteins and/or drugs at different concentrations: Shh protein, DMSO, and GDC0449-recorded at 0, 24, 72 and 96 hours after treatment.

[6] = tested on: advanced-stage SCLC; details: cisplatin/etoposide with or without vismodegib, first line; cited from earlier work
[7] = tested on: A549 cells; assay: Tumor formation after inoculation of GDC0449 pre-treated A549 cells; assay type: in vivo, nude mice; details: A549 cells pre-treated with 40 μM GDC0449, 1 million cells subcutaneous, versus DMSO pre-treated
Description: Then, nude mice were inoculated (sub-cutaneous) with 1 million treated cells (still adherent to the culture flask after treatment with GDC0449). […] Then, nude mice were inoculated subcutaneously with 1 million treated cells (still adherent to the culture flask after treatment with GDC0449).

[8] = tested on: A549 cells; assay: Viability of A549 cells treated with Shh antibodies ± GLI inhibitor 249C; assay type: cell-based, human; details: Homo sapiens, A549
Description: The effect of the C-terminal Shh antibodies from clones 2G4 and 2D9 on the viability of A549 cells was determined. A549 cells were exposed to increasing concentrations of the C-terminal Shh antibodies (2G4, 2D9), or antibodies against the N-terminal portion of Shh protein (6D3, 2E1), and the effective dose (ED50) was determined (assay 1: FIG. 16A; assay 2: FIG. 16B). […] Possibly due to the fact that very few cells express full-length Shh on the cell surface, the cytotoxic effect of the C-terminal Shh antibodies was not as potent as the cytotoxic effect of the N-terminal antibodies.
Next, the cytotoxicity of the C-terminal Shh antibodies was tested when the antibodies were used in conjunction with a small-molecule inhibitor of GLI zinc-finger transcription factor signaling, 249C (4-(5-chlorofuran-2-yl)-1,3-bis(2,4-difluorophenyl)-5-methyl-N-((4-methylmorpholin-2-yl)methyl)-4,5-dihydro-1H-pyrazole-5-carboxamide; Compound 135 above). A549 cells were exposed to varying concentrations of the C-terminal antibodies (2G4, 2D9) or the N-terminal antibodies (6D3, 2E1), in the presence or absence of a very low dose (40 nM) of 249C. (The IC50 of 249C in A549 cells is ˜70 nM.)

[9] = tested on: A549 Shh− cells; assay: Migration/wound healing assay on A549 Shh− cells; assay type: cell-based, human; details: Shh recombinant protein 1200 ng/mL, day 3
Description: Migration assay was performed by wound healing assay. Monolayers of cells were: cultured, scratched, treated with media containing proteins and/or drugs at different concentrations: Shh protein, DMSO, and GDC0449, and recorded 0 and 24, 72 and 96 hours after treatment.
Wound healing assays were performed to study cell migration. Monolayers of cells were cultured, scratched, treated with media containing proteins and/or drugs at different concentrations: Shh protein, DMSO, and GDC0449-recorded at 0, 24, 72 and 96 hours after treatment.

[10] = biological target: full-length human Sonic Hedgehog (Shh) expressed in cells (endogenous, or transfected with pCMV-Shh) (human) (UniProt Q15465); assay: flow cytometry, A549 + vector control (endogenous Shh)
[11] = biological target: full-length human Sonic Hedgehog (Shh) expressed in cells (endogenous, or transfected with pCMV-Shh) (human) (UniProt Q15465); assay: FACS of non-permeabilised A549 cells
[12] = biological target: full-length human Sonic Hedgehog (Shh) expressed in cells (endogenous, or transfected with pCMV-Shh) (human) (UniProt Q15465); assay: FACS of non-permeabilised A549 cells labeled with the antibody; Total Cells Sorted 19 million, % Shh+ Cells 0.06%
[13] = biological target: full-length human Sonic Hedgehog (Shh) expressed in cells (endogenous, or transfected with pCMV-Shh) (human) (UniProt Q15465); assay: flow cytometry of ground up permeabilised A549 xenograft tumour cells from control IgG-treated mice
[14] = biological target: full-length human Sonic Hedgehog (Shh) expressed in cells (endogenous, or transfected with pCMV-Shh) (human) (UniProt Q15465); assay: flow cytometry, A549 cells transfected with pCMV-Shh
[15] = biological target: full-length human Sonic Hedgehog (Shh) expressed in cells (endogenous, or transfected with pCMV-Shh) (human) (UniProt Q15465); assay: flow cytometry, untransfected cells (No transfection)
[16] = biological target: full-length human Sonic Hedgehog (Shh) expressed in cells (endogenous, or transfected with pCMV-Shh) (human) (UniProt Q15465); assay: flow cytometry, cells transfected with full-length Shh
[17] = tested on: advanced SCLC; details: sonidegib in addition to cisplatin/etoposide; cited from earlier work
[18] = biological target: T1, recombinant full-length Shh protein (human, UniProt Q15465 24-462, limits assumed); assay: BLI (Octet), response (nm) against Shh conc (nM), four points between about 28 and 165 nM, fitted line, R2 = 0.97
T1 construct: Printed only as 'full-length recombinant Shh protein'; also called full-length recombinant Shh protein

[19] = biological target: T1, recombinant full-length Shh protein; assay: BLI (Octet), response (nm) against Shh conc (nM), four points between about 28 and 165 nM, fitted line, R2 = 0.98

In the case of `CS(=O)(=O)c1ccc(C(=O)Nc2ccc(Cl)c(-c3ccccn3)c2)c(Cl)c1` [GDC0449], the “Shh gene expression (qPCR)” value ([1]; post-GDC0449 treatment, 20 μM and 40 μM) is given as “dramatic decrease”, the “effect with cisplatin in vitro” value [2] is given as “synergistic effect” and the “Shh rate in A549 xenografts, sequential assay” value ([3]; cisplatin 10 mg/kg IV weekly, then GDC0449 20 mg/kg IP daily) is given as “significant reduction”. For the same molecule, the “Shh rate in A549 xenografts, combination treatment compared to chemotherapy alone” value ([3]; docetaxel 10 mg/kg twice a week plus GDC0449 20 mg/kg IP daily) was “significant reduction”, the “Shh rate post-chemotherapy combined with GDC0449 compared to chemotherapy alone” value ([4]; A549 cells, cisplatin or docetaxel plus GDC0449 40 μM) was “significant decrease; also recorded: decreased significantly” and the “Shh+ cells in pre-inoculated A549 cells” value ([4]; GDC0449 40 μM, day 3) was 0%. For the same molecule, the “cell proliferation and migration” value [5] was “inhibition of cell proliferation and migration”, the “response rate, PFS or OS” value [6] was “No effect” and the “tumor formation from pre-treated cells” value [7] was “completely inhibited”.

Molecule `CN1CCOC(CNC(=O)C2(C)C(c3ccc(Cl)o3)C(c3ccc(F)cc3F)=NN2c2ccc(F)cc2F)C1` (stereo not drawn) [Ab 249C, 4-(5-chlorofuran-2-yl)-1,3-bis(2,4-difluorophenyl)-5-methyl-N-((4-methylmorpholin-2-yl)methyl)-4,5-dihydro-1H-pyrazole-5-carboxamide] has an IC50 [8] of roughly 70 nM.

With “human recombinant N-terminal Shh peptide: Shh human recombinant protein from eBioscience, used at 1200 ng/ml” the “augmentation in the migration rate” value [9] was 15%.

Molecule “commercial C-terminal Shh antibody (Abcam ab53281, rabbit)” has a % of cells labeled [10] of 1%, a % Shh+ cells sorted [11] of 0.06% and a # Shh+ Cells [12] of 3810 cells. It also gave a % Shh-labeled cells [13] of 80%, a % of cells labeled [14] of 5.1% and a % of cells labeled [15] of 0.11%. It also gave a % of cells labeled [16] of 2.45%.

In the case of `Cc1c(C(=O)Nc2ccc(N3C[C@@H](C)O[C@@H](C)C3)nc2)cccc1-c1ccc(OC(F)(F)F)cc1` [sonidegib, N-[6-[(2S,6R)-2,6-Dimethylmorpholin-4-yl]pyridin-3-yl]-2-methyl-3-[4-(trifluoromethoxy)phenyl]benzamide], the response rate [17] is given as 79%.

With `N.N.[Cl][Pt][Cl]` [cisplatin] the “Shh gene expression (qPCR)” value ([1]; after cisplatin treatment) was “elevation”, the “Shh rate, Shh+ cells of live cells” value ([4]; A549 cells, cisplatin 1 mM, 72 h) was 5% and the “Shh rate with escalating doses” value ([4]; NSCLC cells, escalating doses of cisplatin) was “absolute augmentation”.

B1: Ab 1C11-2D9 (antibody, mouse IgG1, kappa, V domains shown)
VH: EVKLVESGGGLVKPGGSLKLSCAASGFTFSSYTMSWVRQTPAKRLEWVATISSGGGNTYYPDSVKGRFTISRDNARNTLYLQMSSLRSEDTAMYYCARDYRSLFAYWGQGTLVTVSA
VL: QIVLTQSPAIMSASPGEKVTITCSASSSVSYMHWFQQKPGTSPKLWIYSTSNLASGVPARFSGSGSGTSYSLTISRMEAEDAATYYCQQRSSYPFTFGSGTKLEIKR
notes: also called clone 2D9; Ab11-2D9
With B1 the Kd [18] was 4.6 nM.

B2: Ab 1C11-2G4 (antibody, IgG1, V domains shown)
VH: EVKLVESGGGLVKPGGSLKLSCAASGFTFSSYTMSWVRQTPAKRLEWVATISSGGGNTYYPDSVKGRFTISRDNARNTLYLQMSSLRSEDTAMYYCARDYRSLFAYWGQGTLVTVSA
VL: QIVLTQSPAIMSASPGEKVTITCSASSSVSYMHWFQQKPGTSPKLWIYSTSNLASGVPARFSGSGSGTSYSLTISRMEAEDAATYYCQQRSSYPFTFGSGTKLEIK
notes: also called clone 2G4; Ab 2G4
With B2 the Kd [19] was 4 nM.

From patent US11479601B2, “Antibodies specific to Sonic Hedgehog and method of use thereof” (The Regents of the University of California, priority 2016, dated 2022)
